The subject of assay [1] is SHR/L-NAME model of hypertension. Kind of assay: Radiotelemetry blood pressure and heart rate in L-NAME-treated SHRs. It is filed as in vivo, rat. The protocol: 12-14 week old male SHRs were implanted with radiotelemetry devices and randomized to receive vehicle, L-NAME (50 mg/L) or L-NAME and 4μ8c (2.5 mg/kg/day i.p.) for 18 days. Systolic (A), diastolic (B), and heart rate (C) were monitored. Data is presented as mean±SEM. *, p<0.05 vs. NT; #, p<0.05 vs. L-NAME. N≥4 per group.
(§1) 12-14 week old male SHRs were used to determine the effect of pharmacological IRE1α inhibition on L-NAME-induced vascular stiffening. They were maintained on a 12-hour light-dark cycle with rat chow and water ad libitium. Animals were implanted with radio-telemetry devices (Data Science International, St. Paul, Minn., USA) one week before the start of the study. Animals were randomized into one of three groups (n=6 per group): 1) No treatment, 2) L-NAME (50 mg/L in drinking water, Sigma-Aldrich), or 3) L-NAME+4μ8c (2.5 mg/kg/day i.p., Millipore). 4μ8c was administered in a vehicle of 10% DMSO, 10% Tween-80 and 80% normal saline. Animals in Group 2 received daily injections of the vehicle. All animals were fed a normal chow diet. At 18 days, animals were sacrificed, organs were harvested and the aorta was collected for mechanical and structural analysis. All animal work was performed according to the guidelines approved by the McMaster University Animal Research Ethics Board.
12-14 week old SHRs were implanted with radiotelemetry devices and treated with the nitric oxide synthase inhibitor L-NAME for 18 days. Rats were given daily injections of either vehicle or 4μ8c (2.5 mg/kg/day i.p.). […] At Day 6, SBP had increased from 187.4±5.4 mmHg to 228.0±15.5 mmHg (p<0.05) and DBP from 134.8±6.5 mmHg to 174.5±13.6 mmHg. At Day 14, SBP and DBP reached a peak of 262.6±13.9 mmHg and 210.4±14.8 mmHg, respectively. […] In the L-NAME+4μ8c group, SBP increased from 166.6±8.4 mmHg at baseline to 216.7±4.8 mmHg at Day 6 while DBP increased from 124.7±5.5 mmHg at baseline to 166.2±8.2 mmHg at Day 6. SBP and DBP peaked at 232.3±5.4 mmHg and 192.1±17.0 mmHg, respectively, at Day 9. […] Vessels were stained with PicroSirius Red and imaged using a light microscope (FIG. 5A). Collagen content in homogenized aortic tissue was measured using the PSR-based colorometric assay.

The subject of another assay is spliced XBP1, GRP78, PDI. Nature of the assay: Aortic collagen chaperone and ER stress marker expression (qRT-PCR, Western blot) in L-NAME-treated SHRs. It is filed as in vivo, rat. The protocol:
12-14 week old male SHRs were randomized to receive vehicle, L-NAME (50 mg/L) or L-NAME and 4μ8c (2.5 mg/kg/day i.p.) for 18 days. Total RNA was extracted from flash frozen aortic tissues. (A) qRT-PCR was used to assess relative mRNA expression of spliced XBP1 and GRP78. 18S was used as a housekeeping gene. (B) Protein levels of PDI and GRP78 were assessed by western blotting and normalized to β-actin. Data is presented as mean±SEM. *, p<0.05 vs. NT. #, p<0.05 vs L-NAME.
as §1
Total RNA was extracted from cultured cells and rat tissues using the TRIzol reagent (ThermoFisher) according to manufacturer's instructions. RNA concentration and purity were measured using a Nanodrop ND-1000 spectrophotometer (NanoDrop Technologies, Inc.). […]
For qRT-PCR, cDNA was amplified using the Fast SYBR Green Master Mix (ThermoFisher) and analyzed with 7500 Software. […]
Cells were lysed in 1× Laemmli buffer and protein content was quantified using the BioRad DC Protein Assay (BioRad, Mississauga, Canada). […]

[2] abbreviates: L-NAME+4μ8c group, peak at Day 9.
The mark [3] stands for this setting: SHR, L-NAME 50 mg/L, 4μ8c 2.5 mg/kg/day i.p., 18 days.

On to `Cc1cc(=O)oc2c(C=O)c(O)ccc12` [4μ8c, 7-Hydroxy-4-methyl-2-oxo-2H-chromene-8-carbaldehyde], for which, in assay [1] (L-NAME+4μ8c group, Day 6), the DBP is 166.2±8.2 mmHg and the SBP is on record as 216.7±4.8 mmHg. Further, in assay [1] (L-NAME+4μ8c group, baseline), the DBP is 124.7±5.5 mmHg and the SBP stood at 166.6±8.4 mmHg. In assay [1] (setting [2]), this compound showed a DBP peak of 192.1±17.0 mmHg and an SBP peak of 232.3±5.4 mmHg. Also, in assay [1] (setting [3]), the “effect on L-NAME-induced elevation in blood pressure” value is given as “did not have an effect” and the “effect on L-NAME-induced elevation in heart rate” value was “did not have an effect”. Besides, the “GRP78 protein in the aorta” value with spliced XBP1, GRP78, PDI (L-NAME+4μ8c group compared to the other two groups, Western blot) is on record as “significantly decreased”. Further, in the assay on spliced XBP1, GRP78, PDI (L-NAME+4μ8c group vs L-NAME group, Western blot), the “PDI protein expression in the aorta” value was “significantly decreased”. The “Spliced XBP1 and GRP78 mRNA expression in the aorta” value in the assay on spliced XBP1, GRP78, PDI (L-NAME+4μ8c group vs L-NAME group, qRT-PCR, FIG. 6A) is on record as “reduced”.

For the origin of these results see patent publication US20190038597A1, “PREVENTION OF VASCULAR AND CARDIAC FIBROSIS VIA IRE1ALPHA INHIBITION” (McMaster University, priority 2017, published 2019).
